Tests used:
[1] = test system: iron-induced geographic atrophy; assay: Iron-induced geographic atrophy development, imaging 4 weeks after injection; type: in vivo, C57BL/6J mice; details: 4 weeks diet before and 4 weeks after iron injection
Description: To evaluate whether D-DHA could protect against geographic atrophy in this model, mice were continued on respective diets for 4 weeks after iron or saline injection. […] This corresponded to photoreceptor (white arrows) and RPE degeneration (black arrows) in OCT scans (FIG. 10C). […] Taken together, […] retinal D-DHA provided long-term protection against the geographic atrophy development induced by iron.
Adult male wild-type C57BL/6J mice (Stock No.000664, Jackson Labs, Bar Harbor, ME, USA) were housed in standard conditions under cyclic light (12 h:12 h light-dark cycle). Mice had ad libitum access to water and food. Beginning at 2 mo of age, mice were placed on the AIN93G diet described above, supplemented with 0.25% D-DHA or DHA (control diet) for 1 week, 2 weeks, 3 weeks, or 4 weeks prior to the intravitreal injection. Mice were given an intravitreal injection of 1 µl 0.5 mM ferric ammonium citrate diluted in 0.9% NaCl (saline) (MP Biomedicals LLC, Santa Ana, CA) or
Mice were given general anesthesia and placed on a platform. Pupils were dilated with 1% tropicamide saline solution (Akorn, Inc., Lake Forest, IL). Optical coherence tomography (OCT) imaging was performed for visualization of the retinal structure by using a Bioptigen
Envisu (R2200, Bioptigen Inc., Durham, NC, USA) coupled to a broadband LED light source (T870-HP, Superlum Diodes, Ltd, Ireland). […]

[2] = test system: lipid peroxidation in a lipid membrane; details: present at 1% fraction of the total PUFAs in a lipid membrane in vitro; cited from earlier work

For [2H]C([2H])(/C=C\CC)/C=C\C([2H])([2H])/C=C\C([2H])([2H])/C=C\C([2H])([2H])/C=C\C([2H])([2H])/C=C\CCC(=O)OCC [D-DHA, 6,6,9,9,12,12,15,15,18,18-D10-(4Z,7Z,10Z,13Z,16Z, 19Z)-docosa 4,7,10,13,16, 19-hexaenoic acid ethyl ester], the geographic atrophy development [1] is given as “fully protected” and the “inhibition of LPO in liposomes” value [2] is given as “efficiently inhibited the LPO”.

— patent US20230333087A1, “METHODS FOR MONITORING PATIENT RESPONSE TO TREATMENT OF RETINAL OXIDATIVE DISEASES” (BioJiva LLC, priority 2022, published 2023)
